Laboratory results published in patent US5780675A, “Deoxygossylic compounds” (The University of New Mexico, priority 1995, dated 1998).
“Also recorded” adds a separate entry of the source. Read-outs that look alike come from different tables or passages of the source.

Columns and labels:
[1] = previous or background findings; GIL compared with gossypol; cited from earlier work
human serum albumin [2] = target: T1, human serum albumin (Homo sapiens, UniProt P02768); conditions: gossypol, determined by multiple methods as reported in FEBS Lett. 157:28-30, 1983; read-out: Dissociation constant (Kd) for binding to human serum albumin; cited from earlier work
T1 sequence (P02768 25-609): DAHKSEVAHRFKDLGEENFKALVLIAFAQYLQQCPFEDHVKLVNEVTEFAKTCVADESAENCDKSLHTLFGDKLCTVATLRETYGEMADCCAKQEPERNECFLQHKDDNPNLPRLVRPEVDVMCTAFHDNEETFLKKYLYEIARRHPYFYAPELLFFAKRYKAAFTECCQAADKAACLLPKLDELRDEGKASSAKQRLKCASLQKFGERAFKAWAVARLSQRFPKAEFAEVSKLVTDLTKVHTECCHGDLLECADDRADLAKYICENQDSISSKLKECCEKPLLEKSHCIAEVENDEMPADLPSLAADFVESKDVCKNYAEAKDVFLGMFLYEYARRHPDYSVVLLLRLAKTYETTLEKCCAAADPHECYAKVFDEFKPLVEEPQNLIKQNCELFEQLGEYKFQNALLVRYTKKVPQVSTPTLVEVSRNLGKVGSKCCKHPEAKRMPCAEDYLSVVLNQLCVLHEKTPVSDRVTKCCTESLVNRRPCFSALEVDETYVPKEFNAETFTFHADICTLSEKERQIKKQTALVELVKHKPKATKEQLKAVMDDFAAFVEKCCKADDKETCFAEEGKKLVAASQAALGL

human serum albumin [3] = target: T1, human serum albumin; assay: Binding to human serum albumin, fluorescence quenching titration; conditions: 25° C., pH 7.4, read-out: Dissociation constant (Kd) for binding to human serum albumin
Procedure: Table I below lists the dissociation constants (Kds) for binding of compounds 1-6 to human serum albumin. The Kd for gossypol was determined by multiple methods as reported in FEBS Lett. 157:28-30, 1983. The Kds for compounds 2-6 were determined by fluorescence quenching titrations.
These experiments were carried out at 25° C. in 2 mL volumes of 0.2M potassium phosphate buffer (pH 7.4) containing 0.1M sodium chloride. Aliquots of a 1 mM stock solution of test compound in DMSO were added to a 10 μM solution of human serum albumin in the buffer. Fluorescence was measured with a Perkin Elmer model LS 50 luminescence spectrometer. The Kds were determined by plotting the reciprocal of free ligand concentration versus the reciprocal of fractional quenching. This plot provides -1/Kd as the x-intercept. Details of the calculations employed are set forth in J. Pharm. Sci. 77:237-240 (1988).

HT46c (HeLaT4+) cells = assay: Cytotoxicity: changes in cell morphology or loss of monolayer adherence in HT46c cells; type: cell-based; conditions: for cytotoxicity (in words): HT46c cells, compared with BDGA and/or GIL where stated; for toxicity (in words): 5.0 μM
[4] = as above; type: cell-based; conditions: human; for MCC at 72 h: HT46c cells, 3 days, lowest concentration with detectable morphology change or loss of monolayer adherence, read-out: threshold cytotoxicity
[5] = test system: H9/HIV-IIIB strain of the HIV-1 virus; assay: Inhibition of HIV replication, focal immunoassay (foci reduction) in HT46c cells; type: cell-based; conditions: for anti-HIV activity (in words): in vitro, compared with BDGA and/or GIL where stated; for anti-HIV activity (in words) / EC50: H9/HIV-IIIB in HT46c cells; for reduction in foci (in words): 5 μM, GIL and BDGA compared; for EC50: Human immunodeficiency virus 1, 72 h, 3 days at 37° C.
Procedure: 1,1'-bisdeoxygossypol (BDG), 1,1'-bisdeoxygossylic acid (BDGA), 8-deoxyhemigossypol (DHG) and 8-deoxyhemigossylic acid (DHGA) were synthesized and tested for their ability to inhibit the replication of HIV in vitro. The EC50 for BDGA was <1 μM and its threshold cytotoxicity was approximately 20 μM. […] Like BDGA, the Ec50 for GIL was <1 μM. […] BDG, on the other hand, was ineffective at 1 μM and destroyed >80% of the cell monolayer at 5 μM.
The anti-HIV assay used was based on a published procedure (J. Virol. 62:3779-3788, 1988) using HT46c (HeLaT4+) cells as host cells for the H9/HIV-IIIB strain of the HIV-1 virus. The cells were seeded into 6-well plates, 5×10^4 cells/well, in RPMI 1640 with 10% FBS and allowed to attach overnight. After treatment of the wells with DEAE-dextran, stock virus was added at a concentration that produces 100-200 foci/well on day 3 in positive control wells. Test compounds were added, and plates incubated for 3 days at 37° C., 5% CO2. Monolayers were fixed with methanol and wells analyzed with a focal immunoassay (FIA). The primary reagent used in the FIA was a polyclonal antibody preparation of sera from AIDS patients. The secondary reagent was a goat anti-human IgG antibody tagged with horseradish peroxidase. The substrate was 3-amino-9-ethylcarbazole in sodium acetate buffer with hydrogen peroxide. Each compound was tested at concentrations of 0.01, 0.1, 1.0, 5.0 and 20 μM. GIL was tested as a standard for comparison.

HIV = conditions: previously found, in vitro, similar assays; cited from earlier work

Kd (human serum albumin [3]) [nM]	EC50 [5] [nM]	Compound	cytotoxicity (in words), previous findings [1]	cytotoxicity (in words) (HT46c (HeLaT4+) cells)	MCC at 72 h [4] [µM]	anti-HIV activity (in words) [5]	toxicity (in words) (HT46c (HeLaT4+) cells)	reduction in foci (in words) [5]	other results
3000	< 1000	Cc1cc2c(C(C)C)c(O)c(O)c3c2c(c1-c1c(C)cc2c(C(C)C)c(O)c(O)c4c2c1OC4=N)OC3=N [GIL, reference compound]	less cytotoxic than gossypol				No toxicity was noted	same reduction in foci	anti-HIV activity relative to gossypol (in words) (HIV): more active; also recorded: more effective than gossypol
1500	< 1000	Cc1cc2c(C(C)C)c(O)c(O)c(C(=O)O)c2cc1-c1cc2c(C(=O)O)c(O)c(O)c(C(C)C)c2cc1C [BDGA, 6,6',7,7'-Tetrahydroxy-3,3'-dimethyl-5,5'-bis(1-methylethyl) [2,2'-binaphthalene]-8,8'-dicarboxylic Acid]			~20	approximately as effective as GIL	No toxicity was noted	same reduction in foci	monolayer destruction (in words) (HT46c (HeLaT4+) cells; 20 μM): Some signs of monolayer destruction
5280		Cc1ccc2c(C(=O)O)c(O)c(O)c(C(C)C)c2c1 [DHGA, 2,3-dihydroxy-6-methyl-4-(1-methylethyl)-1-naphthoic Acid]		very low cytotoxicity		ineffective against HIV			effect on cell morphology (in words) (HT46c (HeLaT4+) cells; even at 20 μM): no observable effect on viral replication or cell morphology; effect on viral replication (in words) ([5]; even at 20 μM): no observable effect on viral replication

More lines, now with the values behind:

Compound	Kd (human serum albumin [3]) [nM]	EC50 [5] [nM]	cytotoxicity (in words), previous findings [1]	cytotoxicity (in words) (HT46c (HeLaT4+) cells)	MCC at 72 h [4] [µM]	anti-HIV activity (in words) [5]	toxicity (in words) (HT46c (HeLaT4+) cells)	reduction in foci (in words) [5]	other results
Cc1cc2c(C(C)C)c(O)c(O)c(C=O)c2c(O)c1-c1c(C)cc2c(C(C)C)c(O)c(O)c(C=O)c2c1O [gossypol]			significantly cytotoxic at effective dosage levels						Kd (human serum albumin [2]): 90 nM
Cc1ccc2c(C=O)c(O)c(O)c(C(C)C)c2c1 [DHG, 2,3-dihydroxy-6-methyl-4-(1-methylethyl)-1-naphthaldehyde]	660			more cytotoxic	5	some anti-HIV activity; also recorded: less active			
Cc1cc2c(C(C)C)c(O)c(O)c(C=O)c2cc1-c1cc2c(C=O)c(O)c(O)c(C(C)C)c2cc1C [BDG, 6,6',7,7'-Tetrahydroxy-3,3'-dimethyl-5,5'-bis(1-methylethyl) [2,2'-binaphthalene]-8,8'-dicarboxaldehyde]	1200			much more cytotoxic than BDGA		less effective against HIV			cytotoxicity at 5 µM ([4]; ht46c cells, 5 μM, read-out: cell monolayer destroyed): > 80%; anti-HIV effect (in words) ([5]; 1 μM): ineffective
